Measurements as given in PubChem BioAssay AID2060623 (Molecular Pharmacology Branch, DTP, NCI, 2025).
Where “and” joins values, the source holds several entries; their conditions need not be identical. Equal values may be shown once.

System: 227483-062-R1-J1-PDC complex spheroids with HUVEC/MSC, viability
Assay: Anticancer human tumor 227483-062-R1-J1-PDC patient-derived pancreatic carcinoma cell line growth inhibition [CLK]
Conditions: for viability, T/C: stronger effect = lower value
Source text: A high-throughput screen of multi-cell type tumor spheroids was designed to identify active combinations of […] and targeted small molecules. Complex spheroids include a stromal component modeled by human endothelial cells (HUVEC) and fibroblasts modeled by human mesenchymal stem cells (MSCs). The concentration ranges selected for each drug and investigational agent were based upon clinically achievable concentrations if the clinical Cmax of the agent was known.
Compounds. The drugs and investigational agents: cirtuvivint (SM08502; NSC835563), CC-671 (NSC850746), vemurafenib (NSC761431), tapotoclax (NSC804041), sotorasib (NSC818433), adagrasib (NSC831453), MRTX-1133 (NSC836407), BAY2416964 (NSC825713), copanlisib (NSC816437), inavolisib (NSC800729), abemaciclib (NSC768073), osimertinib (NSC779217), entinostat (NSC756642), eltanexor (KPT-8602, NSC794443), venetoclax (NSC766270), ceralasertib (NSC777638), bortezomib (NSC756655), olaparib (NSC753686), talazoparib (NSC767125), alisertib (NSC759677), peposertib (NSC802822), gemcitabine (NSC613327), 5-fluorouracil (NSC19893), SN-38 (NSC673596), oxaliplatin (NSC266046), paclitaxel (NSC125973), and doxorubicin (NSC123127), were obtained from the National Cancer Institute (NCI) Developmental Therapeutics Program Chemical Repository. The FDA-approved anticancer drug set is available from the Developmental Therapeutics Program at https://dtp.cancer.gov/organization/dscb/obtaining/available plates.htm. […] The stock solutions were prepared in dimethyl sulfoxide (DMSO, Sigma-Aldrich, St. Louis, MO, cat. D2650), except for the platinum complexes which were prepared in saline (Quality Biological, Gaithersburg, MD, cat. 114-055-101), at 800-fold the tested concentration and stored at -70 degrees C prior to their use. All drugs and investigational agents were tested over a range starting from a high concentration at or near the clinical Cmax and decreasing in half-log increments. If the clinical Cmax for an agent had not been determined, the highest concentration tested was 10 microM.
Cell Culture. All cells were maintained in an incubator at 37 degrees C and 5% CO2 with 95% humidity. The PDC lines were cultured according to standard operating procedures established by the NCI PDMR. Briefly, all PDCs were thawed and cultured in Matrigel-coated flasks prepared with a working solution of 1X Ham's F-12 nutrient mix, without supplementation (Invitrogen, Waltham, MA, cat. 11765054), 100 U/mL penicillin-streptomycin (Invitrogen, cat. 15140122), and 2.5% Matrigel (Corning Inc., Corning, NY, cat. 354248) for the first three passages. The 947758-054-R-J2-PDC line was cultured in 6B/Colon 1A media, which includes advanced DMEM/F-12 (Thermo Fisher Scientific, cat. 12634028), 10 mM HEPES (Thermo Fisher Scientific, cat. 15630080), 1X GlutaMAX supplement (Thermo Fisher Scientific, cat. 35050061), 0.1 mg/mL primocin (InvivoGen, cat. ant-pm-2), 10% defined fetal bovine serum, heat inactivated (HyClone Laboratories Inc., cat. SH30070.03HI), 1.25 mM N-Acetyl-L-cysteine (Sigma-Aldrich, cat. A9165), 10 mM nicotinamide (Sigma-Aldrich, cat. N0636), 1X B-27 supplement (Thermo Fisher Scientific, cat. 17504044), 1X N-2 supplement (Thermo Fisher Scientific, cat. 17502048), and 10 microM Y-27632 dihydrochloride (Tocris Bioscience, cat. 1254). The 876862-298-R-J1-PDC was cultured in 6E media, which includes all 6B/Colon 1A media components plus 50% L-WRN conditioned media (ATCC, cat. CRL-3276), 50 ng/mL recombinant human EGF recombinant protein (hEGF; Thermo Fisher Scientific, cat. PHG0311), 10 ng/mL recombinant human fibroblast growth factor 10 (hGFG-10; PeproTech, cat. 100-26), 1 ng/mL recombinant human fibroblast growth factor 2 (hFGF-2; PeproTech, cat. 100-18B), and 1 µM prostaglandin E2 (PGE2; Tocris, cat. 2296). The 227483-062-R1-J1-PDC line was cultured in Panc media, containing all 6E components except hFGF-2, with the addition of 500 nM SB-431542 (Selleckchem, cat. S1067) and 10 nM gastrin (Tocris, cat. 3006). […]

[1] = curve of first compound, second compound 0.0316 µM
[2] = curve of first compound, second compound 0.1 µM
[3] = curve of first compound, second compound 0.316 µM
[4] = curve of first compound, second compound 1 µM
[5] = curve of first compound, second compound 3.16 µM
[6] = curve of first compound, second compound 10 µM
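Also: spheroids exposed to compounds for seven days before readout.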
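For viability, T/C in this document: percent of DMSO vehicle control luminescence as 100% viability.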

C=CC(=O)Nc1cc(Nc2nccc(-c3cn(C)c4ccccc34)n2)c(OC)cc1N(C)CCN(C)C + CNC(=O)c1ccc(Nc2nc(OC3CCCC3)c3c(-c4ccc5nc(C)oc5c4)c[nH]c3n2)c(OC)c1
IC50 [1]: > 300 nM | IC50 [2]: > 300 nM | IC50 [3]: > 300 nM | IC50 [4]: > 300 nM | IC50 [5]: < 0.949 nM | IC50 [6]: < 0.949 nM | viability, T/C (second compound 0.0316 µM, first compound 0.000949 µM): 95.2% | viability, T/C (second compound 0.0316 µM, first compound 0.003 µM): 94.2% | viability, T/C (second compound 0.0316 µM, first compound 0.00949 µM): 108% | viability, T/C (second compound 0.0316 µM, first compound 0.03 µM): 98.6% | viability, T/C (second compound 0.0316 µM, first compound 0.0949 µM): 76.4% | viability, T/C (second compound 0.0316 µM, first compound 0.3 µM): 80.8% | viability, T/C (second compound 0.1 µM, first compound 0.000949 µM): 93.7% | viability, T/C (second compound 0.1 µM, first compound 0.003 µM): 103% | viability, T/C (second compound 0.1 µM, first compound 0.00949 µM): 85.4% | viability, T/C (second compound 0.1 µM, first compound 0.03 µM): 102% | viability, T/C (second compound 0.1 µM, first compound 0.0949 µM): 71.9% | viability, T/C (second compound 0.1 µM, first compound 0.3 µM): 69.7% | viability, T/C (second compound 0.316 µM, first compound 0.000949 µM): 73.1% | viability, T/C (second compound 0.316 µM, first compound 0.003 µM): 84.8% | viability, T/C (second compound 0.316 µM, first compound 0.00949 µM): 89.9% | viability, T/C (second compound 0.316 µM, first compound 0.03 µM): 63.8% | viability, T/C (second compound 0.316 µM, first compound 0.0949 µM): 83.7% | viability, T/C (second compound 0.316 µM, first compound 0.3 µM): 60.3% | viability, T/C (second compound 1 µM, first compound 0.000949 µM): 58.6% | viability, T/C (second compound 1 µM, first compound 0.003 µM): 50.4% | viability, T/C (second compound 1 µM, first compound 0.00949 µM): 69.6% | viability, T/C (second compound 1 µM, first compound 0.03 µM): 66.1% | viability, T/C (second compound 1 µM, first compound 0.0949 µM): 56.2% | viability, T/C (second compound 1 µM, first compound 0.3 µM): 49.6% | viability, T/C (second compound 3.16 µM, first compound 0.000949 µM): 45.4% | viability, T/C (second compound 3.16 µM, first compound 0.003 µM): 47.5% | viability, T/C (second compound 3.16 µM, first compound 0.00949 µM): 52.5% | viability, T/C (second compound 3.16 µM, first compound 0.03 µM): 42.2% | viability, T/C (second compound 3.16 µM, first compound 0.0949 µM): 51.1% | viability, T/C (second compound 3.16 µM, first compound 0.3 µM): 52.2% | viability, T/C (second compound 10 µM, first compound 0.000949 µM): 42.5% | viability, T/C (second compound 10 µM, first compound 0.003 µM): 41.9% | viability, T/C (second compound 10 µM, first compound 0.00949 µM): 38.4% | viability, T/C (second compound 10 µM, first compound 0.03 µM): 40.9% | viability, T/C (second compound 10 µM, first compound 0.0949 µM): 51.4% | viability, T/C (second compound 10 µM, first compound 0.3 µM): 32.9%

COc1ccc([C@@H](O)c2cc(-c3ncnc4cc(N5CCOCC5)ccc34)c(F)cc2Cl)nn1 + CN1CCN(c2cc(C(=O)Nc3cc4cc(-c5cnn(C)c5)ccc4cn3)ccn2)CC1
IC50 [1]: > 10000 nM | IC50 [2]: > 10000 nM | IC50 [3]: < 31.6 nM | IC50 [4]: < 31.6 nM | IC50 [5]: < 31.6 nM | IC50 [6]: < 31.6 nM | viability, T/C (second compound 0.0316 µM, first compound 0.0316 µM): 95.2% | viability, T/C (second compound 0.0316 µM, first compound 0.1 µM): 107% | viability, T/C (second compound 0.0316 µM, first compound 0.316 µM): 115% | viability, T/C (second compound 0.0316 µM, first compound 1 µM): 99% | viability, T/C (second compound 0.0316 µM, first compound 3.16 µM): 75.7% | viability, T/C (second compound 0.0316 µM, first compound 10 µM): 66.6% | viability, T/C (second compound 0.1 µM, first compound 0.0316 µM): 60.8% | viability, T/C (second compound 0.1 µM, first compound 0.1 µM): 69.8% | viability, T/C (second compound 0.1 µM, first compound 0.316 µM): 54.1% | viability, T/C (second compound 0.1 µM, first compound 1 µM): 73.5% | viability, T/C (second compound 0.1 µM, first compound 3.16 µM): 66.2% | viability, T/C (second compound 0.1 µM, first compound 10 µM): 48.8% | viability, T/C (second compound 0.316 µM, first compound 0.0316 µM): 5.56% | viability, T/C (second compound 0.316 µM, first compound 0.1 µM): 4.19% | viability, T/C (second compound 0.316 µM, first compound 0.316 µM): 4.12% | viability, T/C (second compound 0.316 µM, first compound 1 µM): 4.66% | viability, T/C (second compound 0.316 µM, first compound 3.16 µM): 5.44% | viability, T/C (second compound 0.316 µM, first compound 10 µM): 3.88% | viability, T/C (second compound 1 µM, first compound 0.0316 µM): 1.55% | viability, T/C (second compound 1 µM, first compound 0.1 µM): 3.72% | viability, T/C (second compound 1 µM, first compound 0.316 µM): 3.44% | viability, T/C (second compound 1 µM, first compound 1 µM): 2.14% | viability, T/C (second compound 1 µM, first compound 3.16 µM): 2.19% | viability, T/C (second compound 1 µM, first compound 10 µM): 1.68% | viability, T/C (second compound 3.16 µM, first compound 0.0316 µM): 5.54% | viability, T/C (second compound 3.16 µM, first compound 0.1 µM): 3.34% | viability, T/C (second compound 3.16 µM, first compound 0.316 µM): 3.99% | viability, T/C (second compound 3.16 µM, first compound 1 µM): 3.31% | viability, T/C (second compound 3.16 µM, first compound 3.16 µM): 3.4% | viability, T/C (second compound 3.16 µM, first compound 10 µM): 2.14% | viability, T/C (second compound 10 µM, first compound 0.0316 µM): 2.64% | viability, T/C (second compound 10 µM, first compound 0.1 µM): 1.93% | viability, T/C (second compound 10 µM, first compound 0.316 µM): 2.01% | viability, T/C (second compound 10 µM, first compound 1 µM): 1.95% | viability, T/C (second compound 10 µM, first compound 3.16 µM): 1.9% | viability, T/C (second compound 10 µM, first compound 10 µM): 1.68%

CC1(C)CCC(CN2CCN(c3ccc(C(=O)NS(=O)(=O)c4ccc(NCC5CCOCC5)c([N+](=O)[O-])c4)c(Oc4cnc5[nH]ccc5c4)c3)CC2)=C(c2ccc(Cl)cc2)C1
viability, T/C (compound 0.0316 µM): 92.4% and 103% | viability, T/C (compound 0.1 µM): 112% and 85.4% | viability, T/C (compound 0.316 µM): 95.4% and 94.4% | viability, T/C (compound 1 µM): 107% and 104% | viability, T/C (compound 3.16 µM): 106% and 112% | viability, T/C (compound 10 µM): 13.2% and 9.57% | IC50 (curve of compound): 6220 nM and 5970 nM
